Test results reported in patent US20190133128A1, “Fungicidal pyridazinones” (FMC Corporation, priority 2017, published 2019).

Experiments:
Assay type in all cases: in vivo
[1] = system: Phakopsora pachyrhizi; test: Test A: preventive spray on soybean seedlings, Asian soybean rust, visual disease rating; conditions: for pest or weed control at 250 ppm: Phakopsora pachyrhizi
[2] = system: Puccinia recondita f. sp. tritici; test: Test F: preventive spray on wheat seedlings, wheat leaf rust, visual disease rating; conditions: for pest or weed control at 250 ppm: Puccinia recondita
Description: (§1) General protocol for preparing test solutions for Tests AG: the test compounds were first dissolved in acetone in an amount equal to 3% of the final volume and then suspended at the desired concentration (in ppm) in acetone and purified water (50/50 mix by volume) containing the surfactant PEG400 (polyhydric alcohol esters). The resulting test suspensions were then used in Tests AG. Compounds were sprayed at a concentration of 250 ppm or other indicated rate to the point of run-off on the test plants. The test solution was sprayed to the point of run-off on wheat seedlings. The following day the seedlings were inoculated with a spore suspension of Puccinia recondita f. sp. tritici; […] A dash (-) indicates no test results.

[3] = system: Erysiphe graminis f. sp. tritici; test: Test G: preventive spray on wheat seedlings, wheat powdery mildew, visual disease rating; conditions: for pest or weed control at 250 ppm: Blumeria graminis, 192 h
Description: as §1, with “seedlings.” for “seedlings. The following day the seedlings were inoculated with a spore suspension of Puccinia recondita f. sp. tritici;”

[4] = system: Botrytis cinerea; test: Test C: preventive spray on tomato seedlings, gray mold, visual disease rating; conditions: for pest or weed control at 250 ppm: Botrytis cinerea
Description: as §1, with “tomato” for “wheat”, “seedlings.” for “seedlings. The following day the seedlings were inoculated with a spore suspension of Puccinia recondita f. sp. tritici;”

[5] = system: Zymoseptoria tritici; test: Test E: preventive spray on wheat seedlings, wheat leaf blotch, visual disease rating; conditions: for pest or weed control at 250 ppm: Zymoseptoria tritici
Description: as §1, with “seedlings.” for “seedlings. The following day the seedlings were inoculated with a spore suspension of Puccinia recondita f. sp. tritici;”

[6] = system: Phytophthora infestans; test: whole plant or invertebrate; conditions: for pest or weed control at 250 ppm: Phytophthora infestans, in Solanum lycopersicum, read-out: Test D disease control rating; for Test D disease control rating: tomato seedlings
[7] = 250 ppm, 100 = 100% disease control, 0 = no control

Row | Structure (SMILES) | Test A disease control rating [1, 7] [%] | Test F disease control rating [2, 7] [%] | Test G disease control rating [3, 7] [%] | Test C disease control rating [4, 7] [%] | Test E disease control rating [5, 7] [%] | Test D disease control rating [6, 7] [%] | also measured
1 | Cn1ncc(Cl)c(C(=O)Nc2ccc(OC(F)(F)F)cc2)c1=O [Compound 41, 5-Chloro-2,3-dihydro-2-methyl-3-oxo-N-[4-(trifluoromethoxy)phenyl]-4-pyridazinecarboxamide] |  |  |  |  |  |  | pest or weed control at 250 ppm [1, 7]: 87%; pest or weed control at 250 ppm [2, 7]: 89%; pest or weed control at 250 ppm [3, 7]: 0%; pest or weed control at 250 ppm [4, 7]: 0%; pest or weed control at 250 ppm [5, 7]: 97%; pest or weed control at 250 ppm [6]: 0%
2 | Cn1ncc(Cl)c(C(=O)Nc2ccc(F)cc2)c1=O [Compound 43] | 78 | 97 | 0 | 79 | 4 | 68 | 
3 | COc1cccc(NC(=O)c2c(O)cnn(C)c2=O)c1 [Compound 55] | 0 | 89 | 0 | 0 | 0 | 0 | 
4 | Cn1ncc(OS(C)(=O)=O)c(C(=O)Nc2ccc(OC(F)(F)F)cc2)c1=O [Compound 90] | 98 | 98 | 0 | 60 | 100 | 78 | 
5 | Cn1ncc(O)c(C(=O)Nc2ccc(OC(F)F)cc2)c1=O [Compound 47, N-[4-(Difluoromethoxy)phenyl]-2,3-dihydro-5-hydroxy-2-methyl-3-oxo-4-pyridazinecarboxamide] |  |  |  |  |  |  | pest or weed control at 250 ppm [1, 7]: 38%; pest or weed control at 250 ppm [2, 7]: 99%; pest or weed control at 250 ppm [3, 7]: 0%; pest or weed control at 250 ppm [4, 7]: 0%; pest or weed control at 250 ppm [5, 7]: 77%; pest or weed control at 250 ppm [6]: 88%
6 | Cn1ncc(O)c(C(=O)Nc2ccc(C(F)(F)F)cc2F)c1=O [Compound 50, N-[2-Fluoro-4-(trifluoromethyl)phenyl]-2,3-dihydro-5-hydroxy-2-methyl-3-oxo-4-pyridazinecarboxamide] |  |  |  |  |  |  | pest or weed control at 250 ppm [1, 7]: 0%; pest or weed control at 250 ppm [2, 7]: 100%; pest or weed control at 250 ppm [3, 7]: 98%; pest or weed control at 250 ppm [4, 7]: 85%; pest or weed control at 250 ppm [5, 7]: 98%; pest or weed control at 250 ppm [6]: 99%
7 | Cn1ncc(O)c(C(=O)Nc2cccc(OC(F)(F)F)c2)c1=O [Compound 57] | 0 | 84 | 98 | 0 | 8 | 0 | 
8 | Cn1ncc(O)c(C(=O)Nc2ccc(S(F)(F)(F)(F)F)cc2)c1=O [Compound 91, [4-[[[2,3-Dihydro-5-hydroxy-2-methyl-3-oxo-4-pyridazinyl]carbonyl]amino]phenyl]pentafluorosulfur] |  |  |  |  |  |  | pest or weed control at 250 ppm [1, 7]: 46%; pest or weed control at 250 ppm [2, 7]: 99%; pest or weed control at 250 ppm [3, 7]: 89%; pest or weed control at 250 ppm [4, 7]: 0%; pest or weed control at 250 ppm [5, 7]: 100%; pest or weed control at 250 ppm [6]: 97%
9 | Cn1ncc(O)c(C(=O)Nc2ccccc2-c2cc(F)c(F)c(F)c2)c1=O [Compound 27] | 0 | 98 | 0 | 0 | 0 | 0 | 
10 | Cn1ncc(O)c(C(=O)Nc2ccc(F)cc2)c1=O [Compound 40] | 56 | 95 | 92 | 96 | 96 | 73 | 
11 | Cn1ncc(O)c(C(=O)Nc2cccc(-c3ccc(Cl)cc3)c2)c1=O [Compound 44] | 0 | 86 | 0 | 0 | 0 | 0 | 
12 | Cn1ncc(Cl)c(C(=O)Nc2ccccc2-c2ccc(F)c(F)c2F)c1=O [Compound 32] | 94 | 96 | 0 | 0 | 0 | 0 | 
13 | Cn1ncc(O)c(C(=O)Nc2ccc(-c3ccc(F)cc3)cc2)c1=O [Compound 46] | 77 | 80 | 0 | 16 | 0 | 40 | 
14 | Cn1ncc(Cl)c(C(=O)Nc2ccc(Br)cc2)c1=O [Compound 149] | 92 | 99 | 0 | 0 | 0 | 68 | 
15 | COc1cnn(C)c(=O)c1C(=O)Nc1ccc(Br)cc1 [Compound 59] | 0 | 0 | 0 | 0 | 0 | 0 | 
16 | Cn1ncc(OS(C)(=O)=O)c(C(=O)Nc2ccc(Oc3ccccc3)cc2)c1=O [Compound 106] | 98 | 86 | 81 | 0 | 83 | 85 | 
17 | Cn1ncc(OC(=O)C(C)(C)C)c(C(=O)Nc2ccc(OC(F)(F)F)cc2)c1=O [Compound 53] | 79 | 100 | 98 | 39 | 79 | 99 | 
18 | Cn1ncc(Cl)c(C(=O)Nc2cccc(OC(F)(F)F)c2)c1=O [Compound 63] |  |  |  |  |  |  | Test A disease control rating ([1]; 270 ppm): 59%; Test F disease control rating ([2]; 270 ppm): 86%; Test G disease control rating ([3]; 270 ppm): 48%; Test C disease control rating ([4]; 270 ppm): 53%; Test E disease control rating ([5]; 270 ppm): 98%; Test D disease control rating ([6]; 270 ppm): 53%
19 | COc1ccccc1NC(=O)c1c(O)cnn(C)c1=O [Compound 34] | 0 | 80 | 0 | 0 | 0 | 0 | 
